Assay results taken from patent publication US4448783A, “Substituted pyrazoline, and its use in treatment of gastro-intestinal disturbances” (Burroughs Wellcome Co., priority 1982, dated 1984).

System: response of the rabbit colon in vitro to bradykinin
Experiment: Inhibition of the bradykinin response of rabbit colon mucosa in vitro (transepithelial potential difference and short circuit current, Ussing chambers)
Format: cell-based, New Zealand white male rabbits
Settings: Oryctolagus cuniculus, 0.5 h, incubated 30 min prior to bradykinin (1×10^-6 M), read-out: ED50 (the source's name)
Text: Measurement of transepithelial potential difference (PD) and short circuit current (Isc)
New Zealand white male rabbits (2-3 kg) were fed standard rabbit chow and water ad lib. Rabbits were killed by cervical dislocation, and the distal colon or ileum removed rapidly, opened along its mesenteric border, and rinsed clean of luminal contents with cold Ringer's solution containing, in mmol/liter NaCl, 114; KCl, 5; NaH2 PO4, 0.3; CaCl2, 1.25; MgCl2, 1.1; and NaHCO3, 25 (standard Ringer). Before use, tissues were maintained in ice-cold Ringer with 95% O2 /5% CO2. The standard ringer solution also contained captopril (5×10^-6 M) to inhibit bradykinin metabolism.
The serosa and two muscle layers were removed by placing a 10 cm strip of ileum, serosa up, on a Lucite plate, making a transverse cut through both external muscle layers with a razor blade, and stripping off the layers longitudinally.
Transepithelial electrical potential difference (PD), total conductance (Gt), and short circuit current (Isc) were measured as described by M. Field et al (A M J. Physiol, 220 1388-1396). Six pieces of mucosa were mounted in Ussing chambers (1.12 cm^2 cross-sectional area), and bathed with 8 ml of standard Ringer on each side. Solutions were circulated by gas lift and maintained at 37° C. in water jacketed reservoirs. […]

IC50 [µM] | Compound
50 | CNC1=NN(c2cccc(C(F)(F)F)c2)CC1 [R^1 CH3, 3-methylamino-1-(3-trifluoromethylphenyl)-2-pyrazoline]
200 | NC1=NN(c2cccc(C(F)(F)F)c2)CC1 [R^1 H, 3-amino-1-(3-trifluoromethylphenyl)-2-pyrazoline]
